Results published in ChEMBL document CHEMBL5724696, “Autophagy assay results for EUbOPEN Chemogenomics Library” (2024).

Columns and labels:
Assay type in all cases: functional, Homo sapiens
TERT-RPE1 = experiment: (§1) Here: values are normalized to the negative (DMSO; defined as 0% autophagy induction) and positive (250nM Torin1; mTOR inhibitor; defined as maximal inducer of autophagy = 100%) control compounds and represented as % of autophagy induction. […] The impact of autophagy induction on cells is complex and depends on the affected target. As such, the magnitude of a phenotype may not be equally mirrored in the %-value of autophagy induction and vice versa. The dynamics of the induction may indicate the mode of activation: e.g. activation via phosphorylation or a signaling cascade may occur fast, while activation via transcription factors may take considerably longer. […] Of note, treatment concentrations may be sub-optimal for specific compounds, leading to false negative annotations.; conditions: Culturing Media DMEM/F12 (1:1), 1 % Penicillin/Streptomycin, 10% Fetal bovin serum Add-On: No, Screening Media Control DMEM/F12 (1:1), Screening Media Samples DMEM/F12 (1:1)
U2OS [1] = experiment: as §1; conditions: Culturing Media DMEM, 1 % Penicillin/Streptomycin, 10% Fetal bovin serum Add-On: No, Screening Media Control DMEM, Screening Media Samples DMEM
U2OS [2] = experiment: as §1; conditions: Culturing Media DMEM, 1 % Penicillin/Streptomycin, 10% Fetal bovin serum Add-On: No, Screening Media Control DMEM, Screening Media Samples DMEM; remark: listed apart in the source
[3] = Compound Concentration 0.5 uM, Timepoint 12 hours
[4] = Compound Concentration 0.5 uM, Timepoint 24 hours
[5] = Compound Concentration 0.5 uM, Timepoint 36 hours
[6] = Compound Concentration 0.5 uM, Timepoint 60 hours
[7] = Compound Concentration 2 uM, Timepoint 12 hours
[8] = Compound Concentration 2 uM, Timepoint 24 hours
[9] = Compound Concentration 2 uM, Timepoint 36 hours
[10] = Compound Concentration 2 uM, Timepoint 60 hours
[11] = Compound Concentration 10 uM, Timepoint 12 hours
[12] = Compound Concentration 10 uM, Timepoint 24 hours
[13] = Compound Concentration 10 uM, Timepoint 36 hours
[14] = Compound Concentration 10 uM, Timepoint 60 hours

Compound	autophagy induction (TERT-RPE1; [3]) [%]	autophagy induction (TERT-RPE1; [4]) [%]	autophagy induction (TERT-RPE1; [5]) [%]	autophagy induction (TERT-RPE1; [6]) [%]	autophagy induction (TERT-RPE1; [7]) [%]	autophagy induction (TERT-RPE1; [8]) [%]	autophagy induction (TERT-RPE1; [9]) [%]	autophagy induction (TERT-RPE1; [10]) [%]	autophagy induction (TERT-RPE1; [11]) [%]	autophagy induction (TERT-RPE1; [12]) [%]	autophagy induction (TERT-RPE1; [13]) [%]	autophagy induction (TERT-RPE1; [14]) [%]	autophagy induction (U2OS [1]; [3]) [%]	autophagy induction (U2OS [1]; [4]) [%]	autophagy induction (U2OS [1]; [5]) [%]	autophagy induction (U2OS [1]; [6]) [%]	autophagy induction (U2OS [1]; [7]) [%]	autophagy induction (U2OS [1]; [8]) [%]	autophagy induction (U2OS [1]; [9]) [%]	autophagy induction (U2OS [1]; [10]) [%]	also measured
C[C@]1(C(=O)N(CCCC(=O)O)Cc2cccc(Cl)c2)CCN1C(=O)c1csc2ccccc12 [GLPG-0974]	-9.58	-12.1708	-12.5657	-12.3909	-4.812	-8.05	-10.5216	-11.4009	-6.234	-7.969	-9.743	-14.0611	2.89	1.055	-0.2915	0.8021	5.8948	0.1613	-0.9761	-1.363	autophagy induction (U2OS [1]; [11]): 4.366%; autophagy induction (U2OS [1]; [12]): 0.7536%; autophagy induction (U2OS [1]; [13]): -0.03596%; autophagy induction (U2OS [1]; [14]): 0.5874%; autophagy induction (U2OS [2]; [3]): -10.0746%; autophagy induction (U2OS [2]; [4]): -10.8247%; autophagy induction (U2OS [2]; [5]): -4.098%; autophagy induction (U2OS [2]; [6]): -4.538%; autophagy induction (U2OS [2]; [7]): 5.378%; autophagy induction (U2OS [2]; [8]): 3.105%; autophagy induction (U2OS [2]; [9]): 6.198%; autophagy induction (U2OS [2]; [10]): 1.696%; autophagy induction (U2OS [2]; [11]): 3.852%; autophagy induction (U2OS [2]; [12]): 1.348%; autophagy induction (U2OS [2]; [13]): 0.8582%; autophagy induction (U2OS [2]; [14]): -7.082%
CC(C)NCC(O)c1ccc(N)c(C#N)c1 (stereo not drawn) [CIMATEROL]	2.2717	-0.618	-7.669	-22.0747	9.171	5.1156	0.3735	-11.1579	13.5821	11.7661	4.317	-0.2093	-8.937	-2.541	-0.28	0.09617	-0.2215	-0.03889	0.3661	0.1358	autophagy induction (U2OS [1]; [11]): 14.0499%; autophagy induction (U2OS [1]; [12]): 5.045%; autophagy induction (U2OS [1]; [13]): 2.283%; autophagy induction (U2OS [1]; [14]): 0.5754%; autophagy induction (U2OS [2]; [3]): 3.679%; autophagy induction (U2OS [2]; [4]): -3.232%; autophagy induction (U2OS [2]; [5]): -4.651%; autophagy induction (U2OS [2]; [6]): -4.997%; autophagy induction (U2OS [2]; [7]): 6.803%; autophagy induction (U2OS [2]; [8]): -0.3028%; autophagy induction (U2OS [2]; [9]): -4.0163%; autophagy induction (U2OS [2]; [10]): -10.3459%; autophagy induction (U2OS [2]; [11]): 5.959%; autophagy induction (U2OS [2]; [12]): -4.01%; autophagy induction (U2OS [2]; [13]): -7.491%; autophagy induction (U2OS [2]; [14]): -4.33%
N#Cc1c(N)nc(SCC(N)=O)c(C#N)c1-c1ccc(OCC2CC2)cc1	-0.3512	-0.4647	-3.4426	-13.7976	6.426	7.278	5.568	-4.471	18.2835	21.4433	22.9122	26.9726	1.815	-1.199	-2.125	-2.448	4.971	0.9116	-0.4866	-0.2456	autophagy induction (U2OS [1]; [11]): 12.9304%; autophagy induction (U2OS [1]; [12]): 7.609%; autophagy induction (U2OS [1]; [13]): 1.394%; autophagy induction (U2OS [1]; [14]): 0.5911%; autophagy induction (U2OS [2]; [3]): 13.384%; autophagy induction (U2OS [2]; [4]): 10.3272%; autophagy induction (U2OS [2]; [5]): 7.6764%; autophagy induction (U2OS [2]; [6]): 5.5559%; autophagy induction (U2OS [2]; [7]): 6.979%; autophagy induction (U2OS [2]; [8]): 4.233%; autophagy induction (U2OS [2]; [9]): 4.058%; autophagy induction (U2OS [2]; [10]): 1.654%; autophagy induction (U2OS [2]; [11]): 28.6221%; autophagy induction (U2OS [2]; [12]): 28.519%; autophagy induction (U2OS [2]; [13]): 26.7564%; autophagy induction (U2OS [2]; [14]): 32.3548%
